± gives the expanded uncertainty stated by the source.
Conditions: 101.33 kPa, Liquid; for viscosity: Capillary tube (Ostwald / Ubbelohde) method; for speed of sound: Sing-around technique in a fixed-path interferometer; for mass density: Vibrating tube method

Compound	viscosity (283.15 K)	speed of sound (283.15 K)	mass density (283.15 K)	viscosity (298.15 K)	speed of sound (298.15 K)	mass density (298.15 K)	viscosity (313.15 K)	speed of sound (313.15 K)	mass density (313.15 K)
C1CCOCC1 [tetrahydropyran]	1.005 ± 0.0098 mPa·s	1335.8 ± 1.6 m/s	894.08 ± 0.46 kg/m3	0.8005 ± 0.0081 mPa·s	1255 ± 1.6 m/s	879.18 ± 0.45 kg/m3	0.6494 ± 0.0067 mPa·s	1199.8 ± 1.6 m/s	864.37 ± 0.45 kg/m3
OCC(F)(F)F [2,2,2-trifluoroethanol]	2.693 ± 0.023 mPa·s	872.3 ± 1.2 m/s	1407.89 ± 0.21 kg/m3	1.755 ± 0.017 mPa·s	826.7 ± 1.1 m/s	1382.44 ± 0.2 kg/m3	1.208 ± 0.012 mPa·s	791.7 ± 1.1 m/s	1356.91 ± 0.19 kg/m3

From the NIST ThermoML archive (doi:10.1021/je025655p)
